Experimental data: the supplement of paper PMC10307832

Legend:
Test in all cases: relative viability (nuclei count vs DMSO), 5 days (fraction); higher = more cells survive
Pictilisib + Foretinib = compound: CS(=O)(=O)N1CCN(Cc2cc3nc(-c4cccc5[nH]ncc45)nc(N4CCOCC4)c3s2)CC1 [Pictilisib] + COc1cc2c(Oc3ccc(NC(=O)C4(C(=O)Nc5ccc(F)cc5)CC4)cc3F)ccnc2cc1OCCCN1CCOCC1 [Foretinib] (partner 0.25 µM)
How it was run: (§1)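 Relative viability equals treated-well nuclei counts divided by vehicle-well nuclei counts. Counts came from 4× images of lung cancer cell lines grown in 1536-well plates for 5 days after pin-tool dosing on the day after seeding. Dosing used one drug alone or a fixed anchor-drug dose plus five library-drug doses (not always all listed) in √10 steps, and values are medians of duplicate plates.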

MK-2206 + Palbociclib = compound: NC1(c2ccc(-c3nc4ccn5c(=O)[nH]nc5c4cc3-c3ccccc3)cc2)CCC1 [MK-2206] + CC(=O)c1c(C)c2cnc(Nc3ccc(N4CCNCC4)cn3)nc2n(C2CCCC2)c1=O [Palbociclib] (partner 0.5 µM)
How it was run: as §1

MK-2206 + Bortezomib = compound: NC1(c2ccc(-c3nc4ccn5c(=O)[nH]nc5c4cc3-c3ccccc3)cc2)CCC1 [MK-2206] + CC(C)C[C@H](NC(=O)[C@H](Cc1ccccc1)NC(=O)c1cnccn1)B(O)O [Bortezomib] (partner 0.002 µM)
How it was run: as §1

MK-2206 + Alpelisib = compound: NC1(c2ccc(-c3nc4ccn5c(=O)[nH]nc5c4cc3-c3ccccc3)cc2)CCC1 [MK-2206] + Cc1nc(NC(=O)N2CCC[C@H]2C(N)=O)sc1-c1ccnc(C(C)(C)C(F)(F)F)c1 [Alpelisib] (partner 2 µM)
How it was run: as §1

MK-2206 + Olaparib = compound: NC1(c2ccc(-c3nc4ccn5c(=O)[nH]nc5c4cc3-c3ccccc3)cc2)CCC1 [MK-2206] + O=C(c1cc(Cc2n[nH]c(=O)c3ccccc23)ccc1F)N1CCN(C(=O)C2CC2)CC1 [Olaparib] (partner 8 µM)
How it was run: as §1

Row | Cell Line | relative viability (Pictilisib + Foretinib; first compound 0.02 µM) | relative viability (Pictilisib + Foretinib; first compound 0.06325 µM) | relative viability (Pictilisib + Foretinib; first compound 0.6325 µM) | relative viability (Pictilisib + Foretinib; first compound 2 µM) | relative viability (MK-2206 + Palbociclib; first compound 0.01 µM) | relative viability (MK-2206 + Palbociclib; first compound 0.03162 µM) | relative viability (MK-2206 + Palbociclib; first compound 0.3162 µM) | relative viability (MK-2206 + Palbociclib; first compound 1 µM) | relative viability (MK-2206 + Bortezomib; first compound 0.01 µM) | relative viability (MK-2206 + Bortezomib; first compound 0.03162 µM) | relative viability (MK-2206 + Bortezomib; first compound 0.3162 µM) | relative viability (MK-2206 + Bortezomib; first compound 1 µM) | relative viability (MK-2206 + Alpelisib; first compound 0.01 µM) | relative viability (MK-2206 + Alpelisib; first compound 0.03162 µM) | relative viability (MK-2206 + Alpelisib; first compound 0.3162 µM) | relative viability (MK-2206 + Alpelisib; first compound 1 µM) | relative viability (MK-2206 + Olaparib; first compound 0.01 µM) | relative viability (MK-2206 + Olaparib; first compound 0.03162 µM) | relative viability (MK-2206 + Olaparib; first compound 0.3162 µM) | relative viability (MK-2206 + Olaparib; first compound 1 µM)
1 | A-427 | 1.15 | 0.929 | 1 | 0.604 | 0.512 | 0.585 | 0.507 | 0.524 | 0.912 | 1 | 1.02 | 0.931 | 1.12 | 1.12 | 1.06 | 1.08 | 0.724 | 0.704 | 0.78 | 0.699
2 | RERF-LC-KJ | 0.879 | 0.847 | 0.709 | 0.627 | 0.954 | 1.13 | 1 | 1.06 | 1.06 | 1.12 | 0.876 | 1.02 | 0.922 | 0.802 | 0.663 | 0.697 | 0.885 | 0.93 | 0.874 | 0.81
3 | NCI-H647 | 1.05 | 0.997 | 1.15 | 0.758 | 0.389 | 0.403 | 0.349 | 0.264 | 1.06 | 1.27 | 0.959 | 0.644 | 1.39 | 1.24 | 1.07 | 0.851 | 0.568 | 0.559 | 0.662 | 0.388
4 | NCI-H1734 | 0.918 | 0.641 | 0.579 | 0.35 | 0.238 | 0.369 | 0.28 | 0.264 | 0.847 | 1.02 | 0.66 | 0.725 | 0.709 | 0.625 | 0.451 | 0.521 | 0.63 | 0.667 | 0.648 | 0.507
5 | SK-LU-1 | 0.878 | 0.892 | 0.652 | 0.422 | 0.431 | 0.433 | 0.375 | 0.353 | 1.28 | 1.22 | 1.01 | 0.747 | 1.13 | 0.979 | 0.993 | 0.876 | 0.47 | 0.457 | 0.47 | 0.371
6 | COR-L23 | 1.01 | 1.07 | 0.979 | 0.934 | 0.277 | 0.312 | 0.268 | 0.291 | 0.913 | 1 | 1.18 | 0.989 | 0.82 | 0.904 | 0.681 | 0.686 | 0.32 | 0.31 | 0.297 | 0.328
7 | EMC-BAC-2 | 0.946 | 0.922 | 0.813 | 0.664 | 0.511 | 0.517 | 0.462 | 0.456 | 1.08 | 1.04 | 1.06 | 0.865 | 0.768 | 0.764 | 0.729 | 0.693 | 0.438 | 0.462 | 0.451 | 0.419
8 | NCI-H1355 | 0.931 | 0.868 | 0.849 | 0.398 | 0.39 | 0.392 | 0.362 | 0.329 | 1.22 | 1.25 | 1.07 | 1.14 | 0.886 | 0.813 | 0.789 | 0.783 | 0.767 | 0.829 | 0.672 | 0.761
9 | ABC-1 | 1.37 | 0.903 | 0.863 | 0.803 | 0.809 | 0.669 | 0.641 | 0.605 | 0.302 | 0.219 | 0.43 | 0.352 | 0.964 | 0.915 | 0.848 | 0.812 | 0.898 | 0.841 | 1.1 | 1.08
10 | HOP-62 | 1.05 | 1.16 | 1.05 | 1.03 | 0.407 | 0.468 | 0.452 | 0.485 | 0.726 | 0.759 | 0.429 | 0.743 | 1.14 | 0.925 | 1.03 | 0.914 | 0.472 | 0.412 | 0.574 | 0.573
11 | NCI-H2009 | 1.28 | 1.17 | 1.13 | 0.812 | 0.139 | 0.25 | 0.179 | 0.177 | 0.969 | 1.03 | 1.12 | 0.94 | 1.16 | 1.17 | 1.14 | 1.12 | 0.703 | 0.662 | 0.701 | 0.704
